17 compounds from patent US10083341B2, “Cellular activity quantification using labeled probes” (Oregon Health & Science University, priority 2014, dated 2018) can be followed below.

Entries after “also recorded” stand apart in the source; their conditions may differ. Read-outs that look alike come from different tables or passages of the source.

One test has as its system MOLM-14 cells. The test can be described thus: Inhibitory concentrations (IC50, IC12.5) of kinase inhibitor panel for MOLM-14 cells. The class given is cell-based, human. To be noted: concentration used for 48 h treatment.
Test [1] concerns pCRKL. The test can be described thus: SC-QDP discrete QD counting of pCRKL in K562 cells. The class given is cell-based, human. As to conditions: pCRKL level divided by isotype control, untreated 11.4. The procedure: (§1) Cell culture and kinase inhibitor treatment. Primary mononuclear cells (MNCs) were isolated from peripheral blood or bone marrow of newly diagnosed, untreated patients with chronic phase CML. MNCs were isolated by centrifugation through a Ficoll gradient, and red blood cells were lysed with 1×ACK (0.15 M NH4Cl, 10 mM KHCO3, 0.1 mM EDTA). MNCs were grown in serum-free media consisting of IMDM supplemented with 20% BIT (Stem Cell Technologies), 40 μg/ml low-density lipoprotein (Sigma-Aldrich), 10^-6 M β-mercaptoethanol, and the following cytokines: 100 ng/ml SCF (Stem Cell Technologies), 100 ng/ml G-CSF, 20 ng/ml FLT3 ligand, 20 ng/ml IL-3, and 20 ng/ml IL-6 (Sigma-Aldrich). MNCs were grown at a density of 5×10^5 cells/ml at 37° C., 5% CO2, overnight in a humidified incubator before drug treatment. […]
(§2) SC-QDP image acquisition. Cells were imaged with an inverted fluorescent microscope (Zeiss AxioObserver) equipped with high magnification objectives, QD filter sets (Semrock), and a Luca-R camera (Andor) suitable for detecting discrete QD fluorescence. […]
(§3) SC-QDP discrete QD counts in single cells. Levels of phosphoprotein activity were quantified in single cells using automated software imaging algorithms. […]

For test [2], the system named is pCRKL. Briefly: QD total (diffuse) fluorescence quantification of pCRKL in K562 cells. The class given is cell-based, human. As to conditions: dasatinib-treated, untreated 1.1. The procedure: as §1, §2
Measurements of single-cell total fluorescence of QD and Alexa dyes were obtained for each cell by summing pixel values from all slices in a single z-stack corresponding to each cell and subtracting the global background value for each field of view from the image. […]

Test [3] concerns pCRKL. The test can be described thus: SC-QDP pCRKL in single CD34+ cells from CML patients. As to conditions: dasatinib 100 nM, 4 h. Format: cell-based, human. The procedure: (§4) Cell culture and kinase inhibitor treatment. Primary mononuclear cells (MNCs) were isolated from peripheral blood or bone marrow of newly diagnosed, untreated patients with chronic phase CML. MNCs were isolated by centrifugation through a Ficoll gradient, and red blood cells were lysed with 1×ACK (0.15 M NH4Cl, 10 mM KHCO3, 0.1 mM EDTA). MNCs were grown in serum-free media consisting of IMDM supplemented with 20% BIT (Stem Cell Technologies), 40 μg/ml low-density lipoprotein (Sigma-Aldrich), 10^-6 M β-mercaptoethanol, and the following cytokines: 100 ng/ml SCF (Stem Cell Technologies), 100 ng/ml G-CSF, 20 ng/ml FLT3 ligand, 20 ng/ml IL-3, and 20 ng/ml IL-6 (Sigma-Aldrich). MNCs were grown at a density of 5×10^5 cells/ml at 37° C., 5% CO2, overnight in a humidified incubator before drug treatment. The CML (K562) and AML (MOLM-14) cell lines were grown in suspension culture, in RPMI with 10% fetal bovine serum (Invitrogen), 1% L-glutamine (100 mM), and 1% penicillin/streptomycin (100 μg/ml), in a humidified incubator at 37° C., 5% CO2.
K562 cells and MNCs were treated for 4 h with dasatinib, at a concentration of 100 nM unless otherwise specified. […].
(§5) SC-QDP phosphoprotein labeling. Cells were fixed, permeabilized and dispersed onto cover glass chambers (Lab-Tek; Nunc), or custom-made, multi-well cover glass chambers for high throughput assays. The cells in each well were blocked and treated with primary anti-phosphoprotein antibodies (pCRKL, pSTAT5, pSTAT3, pERK1/2, pAKT473; Cell Signaling Technology). The anti-CD34 antibody (Dako, USA) was used for selection of CD34+ primitive cells. […]
as §2, §3

For another test, the system named is pSTAT5. Briefly: SC-QDP pSTAT5 in single CD34+ cells from CML patients. To be noted: five CML patients, dasatinib 100 nM, 4 h. The class given is cell-based, human. The procedure: as §1, §2, §3
The test system of test [4] is pCRKL, pSTAT5, and pSTAT3. Briefly: SC-QDP baseline phosphoheterogeneity of K562 cells after cell cycle synchronization. Format: cell-based, human. To be noted: lovastatin-induced cell cycle synchronization, data not shown.
Description: as §5, §2
SC-QDP discrete QD counts in single cells. Levels of phosphoprotein activity were quantified in single cells using automated software imaging algorithms. […] Discrete QD fluorescence was detected, localized and tabulated on a per cell basis using automated algorithms written in MATLAB (Matlab). […] The output of these automated algorithms comprised total counts of detected and localized discrete QD fluorescent puncta in each single cell z-stack. […] The QDs were identified as discrete, non-aggregated units comprised of single or a few QDs, as confirmed by intensity profile measurements of QD fluorescence. […]

In a further test the test system is pAKT. As to conditions: MOLM-14 cells, 48 h. The procedure:
as §4
(§6) K562 cells and MNCs were treated for 4 h with dasatinib, at a concentration of 100 nM unless otherwise specified.
(§7) SC-QDP phosphoprotein labeling. Cells were fixed, permeabilized and dispersed onto cover glass chambers (Lab-Tek; Nunc), or custom-made, multi-well cover glass chambers for high throughput assays. The cells in each well were blocked and treated with primary anti-phosphoprotein antibodies (pCRKL, pSTAT5, pSTAT3, pERK1/2, pAKT473; Cell Signaling Technology). The anti-CD34 antibody (Dako, USA) was used for selection of CD34+ primitive cells. […] After cells were incubated with secondary antibodies, they were washed in buffer solution and imaged.
(§8) SC-QDP image acquisition. Cells were imaged with an inverted fluorescent microscope (Zeiss AxioObserver) equipped with high magnification objectives, QD filter sets (Semrock), and a Luca-R camera (Andor) suitable for detecting discrete QD fluorescence. Data acquisition consisted of acquiring multiple fields of view randomly for each well of the multi-well chamber. The microscope was controlled by Micromanager (www.micro-manager.org/). […] Image acquisition was performed manually or by automated high-throughput scanning. For automated high-throughput scanning, a custom-written Java plugin for Micromanager was used that allows scanning of user-selected wells as well as random or user-selected areas within each well for DIC, and appropriate multiple quantum dot (QD) channels. The Java plugin also corrected slide tilt by determining the slide focal plane. Image focus at each well was verified and corrected manually if needed.
(§9) SC-QDP discrete QD counts in single cells. Levels of phosphoprotein activity were quantified in single cells using automated software imaging algorithms. Cell segmentation was first done manually and then was optimized for speed using an automated procedure. Automated cell segmentation comprised detecting the nucleus and plasma membrane using a threshold-based intensity algorithm and a membrane expansion cell segmentation algorithm (www.cellprofiler.org) of each cell. Discrete QD fluorescence was detected, localized and tabulated on a per cell basis using automated algorithms written in MATLAB (Matlab). Briefly, detection of discrete QD probes was accomplished in single-cell z-stacks by applying a spatial bandpass filter, detecting localized maxima, and calculating the position of each QD for each z-slice. […] The output of these automated algorithms comprised total counts of detected and localized discrete QD fluorescent puncta in each single cell z-stack.

In the next test the test system is pERK. To be noted: MOLM-14 cells, 48 h. The procedure:
as §4, §6, §7, §8, §9

In the case of `N#CC[C@H](C1CCCC1)n1cc(-c2ncnc3[nH]ccc23)cn1` [ruxolitinib], in the test on MOLM-14 cells (Homo sapiens), the IC12.5 came to 2.5 µM and half-maximal inhibition (IC50) was put at 10000 nM.
Regarding `Cc1nc(Nc2ncc(C(=O)Nc3c(C)cccc3Cl)s2)cc(N2CCN(CCO)CC2)n1` [dasatinib], the “pCRKL activity S/N ratio by QD counting” value in the test on pCRKL [1] (dasatinib 10 nM) is given as 4.7; in the test with pCRKL [1] (dasatinib 100 nM), 2.3. In the test with pCRKL [2], the “pCRKL S/N ratio by QD total fluorescence” value is recorded as 1.7. The “pCRKL inhibition (shift in peak of PDE curve)” value with pCRKL [3] (CD34+ cells of five CML patients) is recorded as around 1.8 fold. In addition, in the test on pCRKL [3] (five CML patients), the “frequency of dasatinib-resistant CD34+ cells, alternative threshold (pCRKL greater than mean untreated − 0.5σ untreated)” value was 8.5-53.9%. For the same compound, in the test with pCRKL [3] (five CML patients, of total dasatinib-treated cell population), the “frequency of dasatinib-resistant CD34+ cells (pCRKL equal to or greater than mean of untreated CD34+ cells)” value is listed as 5.4-9.9%. For the same compound, the “resistant CD34+ cell population (pSTAT5 greater than mean pSTAT5 of untreated CD34+ cells)” value with pSTAT5 is 17-37%. In the test on MOLM-14 cells (Homo sapiens), this compound had an IC50 of 400 nM. Moreover, the IC12.5 in the test on MOLM-14 cells was determined as 0.1 µM.
In turn, `COc1cc2ncnc(Nc3ccc(F)c(Cl)c3)c2cc1OCCCN1CCOCC1` [gefitinib] registered an IC12.5 with MOLM-14 cells (Homo sapiens) of 2.25 µM.
As for `CC[C@H](C)C(=O)O[C@H]1C[C@@H](C)C=C2C=C[C@H](C)[C@H](CC[C@@H]3C[C@@H](O)CC(=O)O3)[C@H]21` [lovastatin], in test [4], the baseline phosphoheterogeneity entry is “reduced this heterogeneity”.
As to `Cc1ccc(Nc2nccc(N(C)c3ccc4c(C)n(C)nc4c3)n2)cc1S(N)(=O)=O` [pazopanib], in the test on MOLM-14 cells (Homo sapiens), the IC12.5 was found to be 0.5 µM and the IC50 stood at 2000 nM.
As to `C#Cc1cccc(Nc2ncnc3cc(OCCOC)c(OCCOC)cc23)c1` [erlotinib], the “overall shift of pAKT PDE curve” value in the test on pAKT was “left-shift”. Moreover, the pAKT phosphoresponse entry in the test with pAKT (at IC12.5) is recorded as “phosphoinhibition; also recorded: inhibition of pAKT”; in the test with pAKT (at IC50), “phosphoactivation; also recorded: pAKT activation”. For the same compound, the “overall shift of pERK PDE curve” value in the test with pERK was “left-shift”. Also, in the test with pERK (IC50 concentration (FIG. 5C legend)), the “percentage of resistant cells (pERK equal to or greater than mean pERK of untreated cells)” value is listed as 36%. In addition, the pERK phosphoresponse result with pERK (at IC12.5) is listed as “phosphoinhibition”; with pERK (at IC50), “phosphoactivation”. The compound further gave an IC12.5 with MOLM-14 cells (Homo sapiens) of 1.75 µM. Also, the IC50 in the test with MOLM-14 cells (Homo sapiens) was found to be 7000 nM.
In the test on MOLM-14 cells (Homo sapiens), `COc1cc2c(Nc3ccc(Br)cc3F)ncnc2cc1OCC1CCN(C)CC1` [vandetanib] had an IC12.5 of 0.9 µM and an IC50 of 3600 nM.
For the compound `C=CC(=O)N1CCC[C@@H](n2nc(-c3ccc(Oc4ccccc4)cc3)c3c(N)ncnc32)C1` [ibrutinib], in the test with MOLM-14 cells (Homo sapiens), the IC12.5 is 0.4 µM and the IC50 came to 1600 nM.
As to `CO[C@H]1C[C@@H]2CC[C@@H](C)[C@@](O)(O2)C(=O)C(=O)N2CCCC[C@H]2C(=O)O[C@H]([C@H](C)C[C@@H]2CC[C@@H](O)[C@H](OC)C2)CC(=O)[C@H](C)/C=C(\C)[C@@H](O)[C@@H](OC)C(=O)[C@H](C)C[C@H](C)/C=C/C=C/C=C/1C` [rapamycin], in the test with MOLM-14 cells (Homo sapiens), half-maximal inhibition (IC50) was put at 20 nM. In the test with MOLM-14 cells, this compound gave an IC12.5 of 0.005 µM.
Turning to `Cc1cn(-c2cc(NC(=O)c3ccc(C)c(Nc4nccc(-c5cccnc5)n4)c3)cc(C(F)(F)F)c2)cn1` [nilotinib], in the test on MOLM-14 cells (Homo sapiens), the IC12.5 was 2.25 µM and the concentration for half-maximal inhibition (IC50) was found to be 9000 nM.
As to `CCN(CC)CCNC(=O)c1c(C)[nH]c(/C=C2\C(=O)Nc3ccc(F)cc32)c1C` [sunitinib], in the test on MOLM-14 cells (Homo sapiens), the midpoint of inhibition, the IC50, lay at 12 nM. Further, the IC12.5 in the test with MOLM-14 cells worked out at 0.003 µM.
In the test with MOLM-14 cells (Homo sapiens), `CS(=O)(=O)CCNCc1ccc(-c2ccc3ncnc(Nc4ccc(OCc5cccc(F)c5)c(Cl)c4)c3c2)o1` [lapatinib] came in with an IC12.5 of 2.25 µM and an IC50 of 9000 nM.
On to `Cc1ccc(NC(=O)c2ccc(CN3CCN(C)CC3)cc2)cc1Nc1nccc(-c2cccnc2)n1` [imatinib], for which, in the test with MOLM-14 cells (Homo sapiens), the IC12.5 came to 2.5 µM.
In the test with MOLM-14 cells (Homo sapiens), `CNC(=O)c1cc(Oc2ccc(NC(=O)Nc3ccc(Cl)c(C(F)(F)F)c3)cc2)ccn1` [sorafenib] registered an IC50 of 8 nM. In the test on MOLM-14 cells, the IC12.5 is 0.002 µM.
In the test on MOLM-14 cells (Homo sapiens), `C[C@@H](Oc1cc(-c2cnn(C3CCNCC3)c2)cnc1N)c1c(Cl)ccc(F)c1Cl` [crizotinib] yielded an IC12.5 of 0.45 µM and an IC50 of 1800 nM.
`CNC(=O)c1ccccc1Sc1ccc2c(/C=C/c3ccccn3)n[nH]c2c1` [axitinib]: the IC12.5 in the test on MOLM-14 cells was 0.025 µM.
Compound `Cc1ccc(C(=O)Nc2ccc(CN3CCN(C)CC3)c(C(F)(F)F)c2)cc1C#Cc1cnc2cccnn12` [ponatinib] displayed an IC50 in the test on MOLM-14 cells (Homo sapiens) of 4 nM. In the test with MOLM-14 cells, this compound gave an IC12.5 of 0.001 µM.
